This is an account of results in patent US6462193B1, “Hydroxyazepanes as inhibitors of glycosidase and HIV protease” (The Scripps Research Institute, priority 1999, dated 2002).

One test has as its system glycosidases. Description: Glycosidase inhibition analysis, panel of glycosidases. The format is biochemical. On the procedure: (§1) Inhibition analyses were performed at 37° C. in 0.1 M HEPES buffer, pH=6.8, except for α-fucosidase (assayed at 37° C. in 50 mM sodium acetate buffer, pH 6.0). The amount of enzyme added in each assay was 0.05 units (0.1 units for β-galactosidase and α-fucosidase). […] Data were collected and fitted to a Michaelis-Menten curve by using the program HyperCleland for enzyme kinetics analysis (Cleland, W. W. Methods Enzymol. 1979, 63, 103).

The next test addresses T1, HIV protease (Human immunodeficiency virus type 1 group M subtype B, UniProt P03369).
T1 construct: a backbone engineered HIV-1 protease was prepared by total synthesis; made in house; host or cells: total chemical synthesis (no expression host)
The format is biochemical, HIV-1. The protocol:
For determination of IC50 values for HIV protease, a backbone engineered HIV-1 protease was prepared by total synthesis (Schnolzer et al. Science 1992, 256, 221) 450 nM Final concentration of the protease was added to a solution (152 μL final volume) containing tetrahydroxyazepane (inhibitor), 28 μM fluorogenic peptide substrate (Abz-Thr-Ile-Phe-(p-NO2)-Gln-Arg-NH2) (Tith et al. Int. J. Peptide Protein Res. 1990, 36, 544; Slee, et al. J. Am. Chem. Soc. 1995, 117, 11867) and 1.8% dimethyl sulfoxide in assay buffer: 100 mM MES buffer containing 0.5 mg/mL BSA (bovine serum album) at pH 5.5. A Km of 37±8 μM was reported for the synthetic HIV protease against the above fluorogenic substrate. The solution was mixed and incubated over 5 minutes at 37° C. during which time the rate of substrate cleavage was monitored by continuously recording the change in fluorescence of the assay solution. An excitation filter of 325 nm and an emission filter of 420 nm were used. For each inhibitor concentration, three measurements were carried out.

A further test addresses T2, FIV protease (Feline immunodeficiency virus, UniProt P16088).
T2 construct: enzymatic activity of recombinantly derived FIV protease; made in house
Description: FIV protease inhibition, fluorogenic peptide substrate. The format is biochemical. The protocol: The inhibitory effects of compounds 60a, 60b, 64a, 64b, 65a, and 65b on the enzymatic activity of recombinantly derived FIV protease (Slee et al. J. Am. Chem. Soc. 1995, 117, 11867) were studied using a fluorogenic assay based on the enzymatic cleavage of a novel peptide based substrate [Arg-Ala-Leu-Thr-Lys(aminobenzyl)-[…]. Inhibition studies were carried out at a single substrate concentration (20 μM) in a 50 mM sodium citrate/100 mM sodium phosphate buffer (pH 5.3) containing 2% DMSO and 1M sodium chloride. The same wavelengths were used for detections. […] IC50 values were determined by least squares analysis of Dixon Plots (Dixon, M. J. Biochem. 1953, 55, 170).

The target of test [1] is β-galactosidase. The settings on record: read-out: Ki as inhibitor of β-galactosidase; literature value (Bernotas et al. 1987); cited from earlier work.
The target in the next test is T3, α-fucosidase (Bos taurus, UniProt Q2KIM0).
T3 sequence (Q2KIM0 23-468): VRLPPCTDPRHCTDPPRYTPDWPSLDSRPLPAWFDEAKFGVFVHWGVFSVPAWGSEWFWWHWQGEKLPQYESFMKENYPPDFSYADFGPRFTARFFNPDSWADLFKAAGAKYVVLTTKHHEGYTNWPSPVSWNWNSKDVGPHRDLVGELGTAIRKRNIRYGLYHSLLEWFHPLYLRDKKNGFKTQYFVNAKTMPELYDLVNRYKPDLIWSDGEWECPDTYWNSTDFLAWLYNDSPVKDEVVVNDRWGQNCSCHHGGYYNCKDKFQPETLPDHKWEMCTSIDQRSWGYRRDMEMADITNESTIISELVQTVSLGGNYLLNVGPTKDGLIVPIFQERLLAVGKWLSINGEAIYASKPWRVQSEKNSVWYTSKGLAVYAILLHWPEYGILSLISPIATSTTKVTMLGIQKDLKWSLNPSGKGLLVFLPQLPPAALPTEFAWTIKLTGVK
The note with it: literature value (Fleet et al. 1985); read-out: Ki as inhibitor of α-fucosidase; cited from earlier work.

The target of test [2] is β-N-acetylglucosaminidase. Description: Glycosidase inhibition analysis, β-N-acetylglucosaminidase. Type of test: biochemical. The note with it: read-out: Ki as inhibitor of β-N-acetylglucosaminidase. On the procedure: as §1
In test [3] the target is β-galactosidase. Description: Glycosidase inhibition analysis, β-galactosidase. Type of test: biochemical. The note with it: read-out: Ki as inhibitor of β-galactosidase. On the procedure: as §1
Test [4] concerns the target β-N-acetylglucosaminidase. The settings on record: literature value (Wong et al. 1995); read-out: Ki as inhibitor of β-N-acetylglucosaminidase; cited from earlier work.

Entries after “also recorded” stand apart in the source; their conditions may differ. Like-named read-outs stand apart in the source and are kept apart here. Bounds are passed on as bounds.

With `CN1C[C@H](OCc2cc(F)cc(F)c2)[C@H](O)[C@@H](O)[C@@H](OCc2cc(F)cc(F)c2)C1` [Compound 64b, (3S,4R,5R,6S)-3,6-di-O-(3′,5′-difluorobenzyl)-N-methyl-3,4,5,6-tetrahydroxyazepane], the “inhibition of the glycosidases (in words)” value with glycosidases is “not inhibitors”. Besides, at HIV protease, the “inhibition of the HIV protease (in words)” value was “inhibit”.

Broadly, the Ki is the equilibrium dissociation constant of an inhibitor or competing ligand from its target. `O[C@@H]1[C@@H](O)[C@@H](OCc2cc(F)cc(F)c2)CNC[C@@H]1OCc1cc(F)cc(F)c1` [Compound 60b, (3S,4R,5R,6S)-3,6-di-O-(3′,5′-difluorobenzyl)-3,4,5,6-tetrahydroxyazepane]: the “inhibition of the glycosidases (in words)” value in the test on glycosidases is reported as “not inhibitors”. In addition, on HIV protease, the Ki is approximately 350 µM and the “inhibition of the HIV protease (in words)” value was “inhibit”. In addition, at FIV protease, the “IC50 against FIV protease” value is “inceased compared to their inhibitory activity to the HIV protease” and the “inhibition of FIV protease (in words)” value is “active”.

For `O[C@H]1[C@H](O)[C@H](O)CN(Cc2ccccc2)C[C@H]1O` [Compound 7, (3R,4R,5R,6R)-N-Benzyl-3,4,5,6-tetrahydroxyazepane], the “inhibition of the glycosidases (in words)” value in the test with glycosidases is listed as “does not improve inhibition activity except in the case of α-fucosidase”. The “inhibition of the HIV protease (in words)” value against HIV protease is reported as “not inhibitors”.

As to `C[N+]1([O-])C[C@H](OCc2cc(F)cc(F)c2)[C@H](O)[C@@H](O)[C@@H](OCc2cc(F)cc(F)c2)C1` (stereo partly drawn) [Compound 65b, (3S,4R,5R,6S)-3,6-di-O-(3′,5′-difluorobenzyl)-N-methyl-3,4,5,6-tetrahydroxyazepane N-oxide], in the test on glycosidases, the “inhibition of the glycosidases (in words)” value is given as “not inhibitors”. At HIV protease, the “inhibition of the HIV protease (in words)” value is recorded as “inhibit”.

Consider `OC[C@H]1NC[C@H](O)[C@@H](O)[C@H]1O` [1-deoxygalactojirimycin], for which the Ki on β-galactosidase [1] was more than 1000 µM.

`C[C@@H]1NC[C@@H](O)[C@H](O)[C@@H]1O` [1-deoxyfucojirimycin]: on α-fucosidase, the Ki was 0.005 µM.

Take `CN1C[C@H](OCc2cccc(F)c2)[C@H](O)[C@@H](O)[C@@H](OCc2cccc(F)c2)C1` [Compound 64a, (3S,4R,5R,6S)-3,6-di-O-(3′-Fluorobenzyl)-N-methyl-3,4,5,6-tetrahydroxyazepane]: in the test on glycosidases, the “inhibition of the glycosidases (in words)” value is “not inhibitors”. Besides, the “inhibition of the HIV protease (in words)” value against HIV protease is recorded as “inhibit”.

`CO[C@@H]1CN[C@H](CO)[C@@H](O)[C@H]1O` [Compound 28, 2-O-methyl-1-deoxy-D-mannojirimycin]: the “inhibition of the glycosidases (in words)” value in the test with glycosidases is listed as “None of these two azasugars exhibited significant inhibition”.

For `OC1CNCC(O)C(O)C1O` [Compound 3, (3R,4R,5R,6R)-tetrahydroxyazepane], in test [2], the Ki amounted to 4.6 µM. Also, the “inhibition of the HIV protease (in words)” value at HIV protease is “not inhibitors; also recorded: did not show inhibitory activities”.

In the case of `O[C@H]1[C@H](O)[C@@H](O)CN(Cc2ccccc2)C[C@@H]1O` [Compound 8, (3S,4R,5R,6S)-N-Benzyl-3,4,5,6-tetrahydroxyazepane], the “inhibition of the glycosidases (in words)” value in the test with glycosidases was “does not improve inhibition activity except in the case of α-fucosidase”. Also, on HIV protease, the “inhibition of the HIV protease (in words)” value is on record as “not inhibitors”.

In the case of `O[C@@H]1[C@@H](O)[C@@H](OCc2cccc(F)c2)CNC[C@@H]1OCc1cccc(F)c1` [Compound 60a, (3S,4R,5R,6S)-3,6-di-O-(3′-fluorobenzyl)-3,4,5,6-tetrahydroxyazepane], in the test with glycosidases, the “inhibition of the glycosidases (in words)” value is “not inhibitors”. The “inhibition of the HIV protease (in words)” value on HIV protease is given as “inhibit”. For the same compound, at FIV protease, the “IC50 against FIV protease” value is “inceased compared to their inhibitory activity to the HIV protease” and the “inhibition of FIV protease (in words)” value is “active”.

Regarding `O[C@H]1[C@H](O)[C@@H](O)CNC[C@@H]1O` [Compound 6, (3S,4R,5R,6S)-3,4,5,6-Tetrahydroxyazepane], the “inhibition of the glycosidases (in words)” value in the test with glycosidases is given as “inhibits all glycosidases”. Also, the Ki on β-galactosidase [3] worked out at 6.5 µM. Further, on HIV protease, the “inhibition of the HIV protease (in words)” value is listed as “not inhibitors; also recorded: did not show inhibitory activities”.

For the compound `C[N+]1([O-])C[C@H](OCc2cccc(F)c2)[C@H](O)[C@@H](O)[C@@H](OCc2cccc(F)c2)C1` (stereo partly drawn) [Compound 65a, (3S,4R,5R,6S)-3,6-di-O-(3′-Fluorobenzyl)-N-methyl-3,4,5,6-tetrahydroxyazepane N-oxide], in the test on glycosidases, the “inhibition of the glycosidases (in words)” value is listed as “not inhibitors”. The “inhibition of the HIV protease (in words)” value on HIV protease is “inhibit”.

On to `CC(=O)N1C[C@H](O)[C@@H](O)[C@H](O)[C@H]1CO` [1-deoxy-N-acetylglucojirimycin], for which the Ki in test [4] is 9.8 µM.

Take `CO[C@H]1CN[C@@H](CO)[C@H](O)[C@@H]1O` [Compound 29, 2-O-methyl-1-deoxy-L-mannojirimycin]: in the test on glycosidases, the “inhibition of the glycosidases (in words)” value is “None of these two azasugars exhibited significant inhibition”.
